Active and inactive are the calls of the source. The calls are words filed in the database; no cut-off is given here.
Tests used:
L6 [1] = assay: Uncoupling activity in rat L6 myoblasts assessed as oxygen consumption rate incubated over 90 mins; assay type: functional, cell-based
L6 [2] = assay: Uncoupling activity in rat L6 myoblasts assessed as oxygen consumption rate incubated for 2 mins relative to N5,N6-bis(2-fluorophenyl)-[1,2,5]oxadiazolo[3,4-b]pyrazine-5,6-diamine; assay type: functional
[3] = Cmax in C57BL/6 mouse at 10 mg/kg, po by LC-MS/MS method; assay type: ADME, organism-based; settings: in vivo
[4] = Half-life in C57BL/6 mouse at 10 mg/kg, po by LC-MS/MS method; assay type: ADME, organism-based; settings: in vivo
L6 [5] = assay: Cytotoxicity against rat L6 cells; assay type: toxicity, cell-based
Mus musculus [6] = assay: Anti-MASH activity in GAN-diet induced metabolic dysfunction associated steatohepatitis in C57BL/6 mouse assessed as decrease in liver triglyceride level at 100 to 300 mg/kg, po administered daily measured after 4 weeks; assay type: functional, organism-based; settings: dose 100-300 mg/kg
L6 [7] = assay: Uncoupling activity in rat L6 cells assessed as increase in oxygen consumption rate incubated for 40 mins in presence of antimycin A; assay type: functional, cell-based
[8] = Toxicity in C57BL/6 mouse assessed as change in body weight at 30 to 1000 mg/kg, po measured after 24 hrs; assay type: organism-based; settings: in vivo, dose 30-1000 mg/kg
[9] = Toxicity in C57BL/6 mouse assessed as change in body weight at 100 to 300 mg/kg, po administered daily and measured after 31 days; assay type: organism-based; settings: in vivo, 744 h, dose 100-300 mg/kg, time 31 day
[10] = Cmax in C57BL/6 mouse at 30 mg/kg, po by LC-MS/MS method; assay type: ADME, organism-based; settings: in vivo
Mus musculus [11] = assay: Anti-MASH activity in GAN-diet induced metabolic dysfunction associated steatohepatitis in C57BL/6 mouse assessed as change in plasma triglyceride level at 100 to 300 mg/kg, po administered daily measured after 4 weeks; assay type: functional, organism-based; settings: dose 100-300 mg/kg
[12] = Toxicity in C57BL/6 mouse assessed as adverse effect at 30 to 1000 mg/kg, po measured after 24 hrs; assay type: organism-based; settings: in vivo, dose 30-1000 mg/kg
[13] = Induction of respiration in rat L6 cells assessed as oxygen consumption rate at 3.3 uM pretreated with compound followed by N5,N6-bis(2-fluorophenyl)-[1,2,5]oxadiazolo[3,4-b]pyrazine-5,6-diamine addition; assay type: functional
[14] = Half-life in C57BL/6 mouse at 30 mg/kg, po by LC-MS/MS method; assay type: ADME, organism-based; settings: in vivo
[15] = Toxicity in C57BL/6 mouse assessed as change in body temperature at 30 to 1000 mg/kg, po measured after 24 hrs; assay type: organism-based; settings: in vivo, dose 30-1000 mg/kg
Mus musculus [16] = assay: Anti-MASH activity in GAN-diet induced metabolic dysfunction associated steatohepatitis in C57BL/6 mouse assessed as change in liver size at 100 to 300 mg/kg, po administered daily measured after 4 weeks; assay type: functional, organism-based; settings: dose 100-300 mg/kg
[17] = Induction of respiration in rat L6 cells assessed as oxygen consumption rate at 3.3 uM; assay type: functional
[18] = Toxicity in C57BL/6 mouse assessed as change in appetite at 30 to 1000 mg/kg, po measured after 24 hrs; assay type: organism-based; settings: in vivo, dose 30-1000 mg/kg
Mus musculus [19] = assay: Anti-MASH activity in GAN-diet induced metabolic dysfunction associated steatohepatitis in C57BL/6 mouse assessed as change in plasma cholesterol level at 100 to 300 mg/kg, po administered daily measured after 4 weeks; assay type: functional, organism-based; settings: dose 100-300 mg/kg
L6 [20] = assay: Uncoupling activity in rat L6 cells assessed as increase in oxygen consumption rate incubated for 40 mins in presence of rotenone; assay type: functional, cell-based
[21] = Rattus norvegicus, L6, 1.5 h, read-out: EC50

SMILES | EC50 (L6 [1]; [21]) [µM] | Activity (L6 [2]) [%] | also measured
Fc1ccc(Oc2ccc3nc(C(F)(F)F)[nH]c3n2)c(F)c1 | 12.6 | 43 | 
FC(F)(F)c1nc2c(-c3cc(Cl)cc(Cl)c3)ccnc2[nH]1 | 1.1 | 76 | Cmax [3]: 13 µM; half-life [4]: 25.3 h
FC(F)(F)c1cccc(-c2ccnc3[nH]c(C(F)(F)F)nc23)c1 | 0.85 | 42 | Cmax [3]: 28 µM; half-life [4]: 5.5 h
FC(F)(F)c1ccc(-c2ccc3nc(C(F)(F)F)[nH]c3n2)cn1 | 11.9 | 47 | 
Fc1cc(F)cc(-c2ccnc3[nH]c(C(F)(F)F)nc23)c1 | 1.5 | 42 | Cmax [3]: 37 µM; half-life [4]: 2.8 h
Fc1ccccc1Oc1ccc2nc(C(F)(F)F)[nH]c2n1 | 30.8 | 30 | 
Fc1ccccc1-c1ccnc2[nH]c(C(F)(F)F)nc12 | 19.4 | 18 | 
COc1ccc(-c2ccnc3[nH]c(C(F)(F)F)nc23)cc1 |  |  | EC50 (L6 [1]; l6): Not_active
FC(F)(F)c1nc2c(-c3ccccc3)ccnc2[nH]1 |  |  | EC50 (L6 [1]; l6): Not_active
Fc1ccccc1-c1ccc2nc(C(F)(F)F)[nH]c2n1 | 16 | 35 | 
FC(F)(F)c1ccc(-c2ccc3nc(C(F)(F)F)[nH]c3n2)cc1 | 1 | 11 | 
FC(F)(F)c1cc(-c2ncnc3[nH]c(C(F)(F)F)nc23)cc(C(F)(F)F)c1 |  |  | Activity (L6 [5]): Toxic
Fc1cccc(-c2ccnc3[nH]c(C(F)(F)F)nc23)c1 | 8.2 | 32 | 
Fc1cccc(Oc2ccc3nc(C(F)(F)F)[nH]c3n2)c1F | 7.1 | 39 | 
Fc1cc(F)cc(-c2ccc3nc(C(F)(F)F)[nH]c3n2)c1 | 3.8 | 32 | 
FC(F)(F)c1ccc(-c2ncnc3[nH]c(C(F)(F)F)nc23)cc1 | 1.2 | 45 | 
FC(F)(F)c1nc2c(Cl)ccnc2[nH]1 | 29.8 | 14 | 
Cc1ccc(-c2ccnc3[nH]c(C(F)(F)F)nc23)cc1 |  |  | EC50 (L6 [1]; l6): Not_active
FC(F)(F)c1cccc(-c2ncnc3[nH]c(C(F)(F)F)nc23)c1 | 1.2 | 46 | 
Fc1ccc(-c2ccnc3[nH]c(C(F)(F)F)nc23)c(F)c1 | 11 | 36 | 
Fc1cccc(Oc2ccc3nc(C(F)(F)F)[nH]c3n2)c1 | 10.3 | 47 | 
Fc1cc(F)cc(-c2ncnc3[nH]c(C(F)(F)F)nc23)c1 | 4 | 54 | 
Fc1ccc(-c2ccnc3[nH]c(C(F)(F)F)nc23)cc1 | 4.4 | 6 | 
Fc1ccccc1Oc1ccnc2[nH]c(C(F)(F)F)nc12 | 58 | 12 | 

SMILES | EC50 (L6 [1]; [21]) [µM] | Activity (L6 [2]) [%] | also measured
CC(F)(F)c1nc2c(-c3ccc(C(F)(F)F)cc3)ccnc2[nH]1 |  |  | EC50 (L6 [1]; l6): Not_active
FC(F)(F)Oc1ccc(-c2ccnc3[nH]c(C(F)(F)F)nc23)cc1 | 0.48 | 19 | 
FC(F)(F)c1cccc(-c2ccc3nc(C(F)(F)F)[nH]c3n2)c1 | 3 | 36 | 
FC(F)(F)c1ccc(-c2ccnc3[nH]c(C(F)(F)F)nc23)cc1 | 1.3 | 46 | Cmax [3]: 8 µM; half-life [4]: 3.4 h
Fc1ccc(-c2ccnc3[nH]c(C(F)(F)F)nc23)cc1F | 4.4 | 34 | 
Fc1ccc(F)c(-c2ccnc3[nH]c(C(F)(F)F)nc23)c1 | 15 | 54 | 
FC(F)(F)Oc1cccc(-c2ccc3nc(C(F)(F)F)[nH]c3n2)c1 | 1.4 | 8 | 
Cc1ccnc2[nH]c(C(F)(F)F)nc12 |  |  | EC50 (L6 [1]; l6): Not_active
FC(F)(F)c1nc2c(-c3cccc(Cl)c3)ccnc2[nH]1 | 2 | 32 | Cmax [3]: 18 µM; half-life [4]: 3 h
FC(F)(F)c1cccc(Oc2ccc3nc(C(F)(F)F)[nH]c3n2)c1 | 1.8 | 19 | 
FC(F)(F)c1nc2c(-c3ccc(Cl)cc3)ccnc2[nH]1 | > 100 | 22 | 
FC(F)(F)c1ccc(-c2ccnc3[nH]c(C(F)(F)C(F)(F)F)nc23)cc1 | 4.69 | 31 | 
FC(F)(F)c1cccc(Oc2ccnc3[nH]c(C(F)(F)F)nc23)c1 | 3.7 | 20 | 
FC(F)(F)Oc1ccc(-c2ccc3nc(C(F)(F)F)[nH]c3n2)cc1 | 1.3 | 2 | 
CC(=O)c1ccc(-c2ccnc3[nH]c(C(F)(F)F)nc23)cc1 | > 100 | 21 | 
Fc1cc(F)cc(Oc2ccnc3[nH]c(C(F)(F)F)nc23)c1 | 11.9 | 43 | 
FC(F)(F)c1ccc(-c2ccnc3[nH]c(C(F)(F)F)nc23)cn1 | 2.6 | 25 | 
FC(F)(F)Oc1cccc(-c2ccnc3[nH]c(C(F)(F)F)nc23)c1 | 0.83 | 41 | Activity (Mus musculus [6]): Active; Activity (L6 [7]): inactive; Activity [8]: Non-toxic; Activity [9]: Non-toxic; Cmax [3]: 22 µM; Cmax [10]: 34.7 µM; Activity (Mus musculus [11]): inactive; Activity [12]: Non-toxic; Activity [13]: 300%; half-life [14]: 3.7 h; Activity [15]: Non-toxic; Activity (Mus musculus [16]): inactive; Activity [17]: 200%; Activity [18]: Non-toxic; Activity (Mus musculus [19]): inactive; Activity (L6 [20]): inactive; half-life [4]: 1.3 h
Fc1ccc(-c2ccc3nc(C(F)(F)F)[nH]c3n2)cc1 | 15 | 42 | 
Oc1ccc(-c2ccnc3[nH]c(C(F)(F)F)nc23)cc1 |  |  | EC50 (L6 [1]; l6): Not_active
FC(F)(F)c1cc(-c2ccnc3[nH]c(C(F)(F)F)nc23)cc(C(F)(F)F)c1 | > 100 | 45 | 
FC(F)c1nc2c(-c3ccc(C(F)(F)F)cc3)ccnc2[nH]1 |  |  | EC50 (L6 [1]; l6): Not_active
Fc1cc(F)cc(Oc2ccc3nc(C(F)(F)F)[nH]c3n2)c1 | 3.9 | 45 | 

Reference: ChEMBL document CHEMBL6092181, “Design, synthesis, and biological evaluation of imidazo[4,5-b]pyridine mitochondrial uncouplers for the treatment of metabolic dysfunction-associated steatohepatitis (MASH)” (Eur J Med Chem, 2024)
